This note sets out measurements from patent US20120270237A9, “METHODS FOR THE IDENTIFICATION OF KINASE INTERACTING MOLECULES AND FOR THE PURIFICATION OF KINASE PROTEINS” (Cellzone AG, priority 2009, published 2012).

SMILES strings stand for the structures.

Broadly, the inhibition is the relative decrease from the control value, in per cent.

One assay has as its target T1, PIP5K2A (Homo sapiens, UniProt P48426).
T1 sequence (P48426 1-406): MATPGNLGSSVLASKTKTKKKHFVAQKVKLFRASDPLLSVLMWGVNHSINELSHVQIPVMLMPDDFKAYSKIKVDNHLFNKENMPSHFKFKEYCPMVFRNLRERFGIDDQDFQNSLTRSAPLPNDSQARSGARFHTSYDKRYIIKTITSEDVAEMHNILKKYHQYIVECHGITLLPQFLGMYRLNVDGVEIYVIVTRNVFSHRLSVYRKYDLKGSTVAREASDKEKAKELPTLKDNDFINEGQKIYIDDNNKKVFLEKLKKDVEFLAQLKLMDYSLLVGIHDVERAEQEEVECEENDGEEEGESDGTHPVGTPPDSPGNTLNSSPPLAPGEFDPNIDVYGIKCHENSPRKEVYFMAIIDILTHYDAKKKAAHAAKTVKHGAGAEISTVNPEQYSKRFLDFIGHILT
Briefly: Kinobeads competition binding, L-363 cell lysate. Further details: endogenous in cells; host or cells: L-363 (treated with MG132 for three hours before harvest). Particulars: 10 μM free compound, L-363 lysate. As to the method: (§1) To one aliquot of cell lysate 10 μM of the free compound (FIG. 3, CZC31326) was added and allowed to bind to proteins in the lysate. Then the affinity matrix with the immobilized compound was added to capture proteins that were not interacting with the previously added free compound. Beads were separated from the lysate and bead bound proteins were eluted in SDS sample buffer and subsequently separated by SDS-Polyacrylamide gel electrophoresis (FIG. 8). Suitable gel bands were cut out and subjected to in-gel proteolytic digestion with trypsin. The second lysate aliquot was processed identically, however no free compound was added (DMSO solvent control). Peptides originating from samples 1 and 2 were labeled with iTRAQ reagents (iTRAQ 114 and iTRAQ 117) and the combined samples were analyzed with a nano-flow liquid chromatography system coupled online to a tandem mass spectrometer (LC-MS/MS) experiment followed by iTRAQ reporter ion quantification in the MS/MS spectra as described in Example 2.
(§2) For this experiment the human plasma cell leukaemia line L-363 was used (German Collection of Microorganisms and Cell Cultures, DSMZ number ACC49, Braunschweig, Germany). Cells were treated for three hours with 20 μM of the proteasome inhibitor MG132 (Z-Leu-Leu-Leu-al, Sigma C2211) prior to cell harvesting.

The target in another assay is T2, PKD3 (Homo sapiens, UniProt O94806).
T2 sequence (O94806 1-890): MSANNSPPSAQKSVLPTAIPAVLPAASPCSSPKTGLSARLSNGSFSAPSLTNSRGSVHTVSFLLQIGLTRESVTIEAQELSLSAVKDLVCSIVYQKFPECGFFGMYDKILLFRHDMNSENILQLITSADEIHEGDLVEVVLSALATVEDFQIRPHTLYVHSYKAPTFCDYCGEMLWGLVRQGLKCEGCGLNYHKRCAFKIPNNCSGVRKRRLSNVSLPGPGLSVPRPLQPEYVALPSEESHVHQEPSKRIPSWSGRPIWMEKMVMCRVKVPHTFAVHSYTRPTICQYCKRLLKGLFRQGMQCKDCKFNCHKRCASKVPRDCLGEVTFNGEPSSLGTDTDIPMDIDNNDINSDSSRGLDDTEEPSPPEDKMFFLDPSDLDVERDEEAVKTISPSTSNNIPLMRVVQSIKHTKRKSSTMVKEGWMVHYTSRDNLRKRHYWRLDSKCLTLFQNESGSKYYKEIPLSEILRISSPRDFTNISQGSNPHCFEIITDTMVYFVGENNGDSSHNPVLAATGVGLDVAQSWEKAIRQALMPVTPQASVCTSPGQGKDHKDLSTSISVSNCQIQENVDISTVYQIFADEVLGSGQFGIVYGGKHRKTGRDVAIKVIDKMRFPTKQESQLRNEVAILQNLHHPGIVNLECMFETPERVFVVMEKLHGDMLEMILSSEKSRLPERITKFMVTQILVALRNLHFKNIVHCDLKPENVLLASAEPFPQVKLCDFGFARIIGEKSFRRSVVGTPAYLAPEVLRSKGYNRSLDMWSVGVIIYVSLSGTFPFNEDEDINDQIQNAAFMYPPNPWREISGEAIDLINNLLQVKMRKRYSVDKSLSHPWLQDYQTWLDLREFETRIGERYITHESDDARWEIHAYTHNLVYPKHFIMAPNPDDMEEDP
Briefly: Kinobeads competition binding, L-363 cell lysate. The conditions noted are these: 10 μM free compound, L-363 lysate. Also on record: endogenous in cells; host or cells: L-363 (treated with MG132 for three hours before harvest). As to the method:
as §1, §2

The next assay concerns the target MLK4 (Homo sapiens, UniProt Q5TCX8). As to the kind of experiment: Kinobeads competition binding, HeLa Placenta lysate mix. Further details: capturing and identification of kinases from mixed HeLa placenta lysates; endogenous in cells; host or cells: HeLa cells mixed with placenta tissue lysate. Particulars: 10 μM free compound. As to the method: as §1, with “10).” for “8).”

The target of the next assay is PKCa (Homo sapiens, UniProt P17252). The description is as above. Further details: capturing and identification of kinases from mixed HeLa placenta lysates; endogenous in cells; host or cells: HeLa cells mixed with placenta tissue lysate. The conditions noted are these: 10 μM free compound. As to the method:
as §1, with “10).” for “8).”

For the next assay, the target named is SLK (Homo sapiens, UniProt Q9H2G2). The description is as above. Further details: capturing and identification of kinases from mixed HeLa placenta lysates; endogenous in cells; host or cells: HeLa cells mixed with placenta tissue lysate. The conditions noted are these: 10 μM free compound. As to the method:
as §1, with “10).” for “8).”

Sequence of SLK (Q9H2G2 whole entry): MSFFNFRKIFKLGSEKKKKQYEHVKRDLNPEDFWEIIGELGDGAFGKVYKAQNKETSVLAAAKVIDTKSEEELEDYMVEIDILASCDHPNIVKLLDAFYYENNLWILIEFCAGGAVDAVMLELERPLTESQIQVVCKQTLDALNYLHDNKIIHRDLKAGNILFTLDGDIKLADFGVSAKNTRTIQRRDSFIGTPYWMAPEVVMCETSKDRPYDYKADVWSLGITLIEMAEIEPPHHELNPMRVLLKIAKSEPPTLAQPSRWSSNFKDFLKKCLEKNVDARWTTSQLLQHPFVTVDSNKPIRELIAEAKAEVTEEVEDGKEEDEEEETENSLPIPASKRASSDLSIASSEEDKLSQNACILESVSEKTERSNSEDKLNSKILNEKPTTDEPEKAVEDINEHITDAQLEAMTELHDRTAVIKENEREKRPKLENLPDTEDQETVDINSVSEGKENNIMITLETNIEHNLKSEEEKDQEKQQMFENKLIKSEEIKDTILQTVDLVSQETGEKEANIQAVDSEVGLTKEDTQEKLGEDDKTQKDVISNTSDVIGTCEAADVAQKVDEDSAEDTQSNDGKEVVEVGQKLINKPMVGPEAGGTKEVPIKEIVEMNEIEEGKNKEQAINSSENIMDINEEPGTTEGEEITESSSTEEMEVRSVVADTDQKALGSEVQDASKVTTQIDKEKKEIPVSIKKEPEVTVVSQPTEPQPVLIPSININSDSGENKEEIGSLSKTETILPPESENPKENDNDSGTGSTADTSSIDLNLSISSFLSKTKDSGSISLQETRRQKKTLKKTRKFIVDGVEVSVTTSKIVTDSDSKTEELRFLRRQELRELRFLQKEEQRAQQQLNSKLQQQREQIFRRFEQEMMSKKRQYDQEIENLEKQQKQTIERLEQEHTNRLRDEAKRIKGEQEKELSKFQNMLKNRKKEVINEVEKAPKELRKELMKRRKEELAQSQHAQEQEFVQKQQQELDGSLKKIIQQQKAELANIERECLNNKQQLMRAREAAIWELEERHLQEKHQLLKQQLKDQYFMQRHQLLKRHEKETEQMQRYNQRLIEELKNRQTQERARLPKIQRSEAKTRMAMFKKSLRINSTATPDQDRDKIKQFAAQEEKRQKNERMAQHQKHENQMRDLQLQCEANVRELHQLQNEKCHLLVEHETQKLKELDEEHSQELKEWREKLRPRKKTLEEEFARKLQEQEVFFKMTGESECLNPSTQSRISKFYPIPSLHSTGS
Sequence of MLK4 (Q5TCX8 whole entry): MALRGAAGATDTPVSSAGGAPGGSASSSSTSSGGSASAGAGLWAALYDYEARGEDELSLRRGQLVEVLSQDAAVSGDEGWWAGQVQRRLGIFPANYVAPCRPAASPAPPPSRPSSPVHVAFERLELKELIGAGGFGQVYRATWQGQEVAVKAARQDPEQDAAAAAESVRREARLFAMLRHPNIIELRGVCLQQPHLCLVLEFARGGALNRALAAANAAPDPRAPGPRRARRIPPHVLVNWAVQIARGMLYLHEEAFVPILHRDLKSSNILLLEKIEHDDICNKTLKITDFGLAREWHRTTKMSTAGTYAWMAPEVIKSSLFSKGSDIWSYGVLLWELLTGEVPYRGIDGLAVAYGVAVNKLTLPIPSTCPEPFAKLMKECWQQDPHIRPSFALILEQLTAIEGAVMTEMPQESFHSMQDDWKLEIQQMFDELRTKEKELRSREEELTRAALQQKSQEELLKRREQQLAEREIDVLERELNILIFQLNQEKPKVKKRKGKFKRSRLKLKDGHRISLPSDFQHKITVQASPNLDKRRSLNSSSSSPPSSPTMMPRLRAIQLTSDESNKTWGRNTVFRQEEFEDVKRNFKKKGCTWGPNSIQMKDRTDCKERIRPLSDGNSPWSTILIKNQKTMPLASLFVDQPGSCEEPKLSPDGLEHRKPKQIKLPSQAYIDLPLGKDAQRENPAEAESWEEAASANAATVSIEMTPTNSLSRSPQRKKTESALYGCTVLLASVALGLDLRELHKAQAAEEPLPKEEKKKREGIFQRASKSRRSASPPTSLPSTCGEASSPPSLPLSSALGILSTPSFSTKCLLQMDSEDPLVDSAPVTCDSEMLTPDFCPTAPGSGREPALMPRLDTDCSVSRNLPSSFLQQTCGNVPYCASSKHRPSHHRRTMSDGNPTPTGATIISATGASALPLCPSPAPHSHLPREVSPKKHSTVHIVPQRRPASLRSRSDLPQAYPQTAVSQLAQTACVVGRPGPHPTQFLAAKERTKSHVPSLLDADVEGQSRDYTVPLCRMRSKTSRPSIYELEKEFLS

Take `CS(=O)(=O)Nc1ccccc1Nc1nc(Nc2cccc(OCCN)c2)ncc1Cl` [CZC31326, N-(2-(2-(3-(2-aminoethoxy)phenylamino)-5-chloropyrimidin-4-ylamino)phenyl)methanesulfonamide]: the inhibition at 10 µM on PIP5K2A worked out at 96.4%; at PKD3, 98.1%; on MLK4, 88.9%; on PKCa, 94.9%; on SLK, 93.2%.
